The data set has as its system CCRIS mutagenicity, Ames/micronucleus/aberration tests. Nature of the data set: CCRIS mutagenicity studies.
Where [1] appears, read: Test System: AMES SALMONELLA TYPHIMURIUM, Strain/Indicator: TA98, Metabolic Activation: NONE, Method: PREINCUBATION
Setting [2] is: Test System: AMES SALMONELLA TYPHIMURIUM, Strain/Indicator: TA100, Metabolic Activation: NONE, Method: PREINCUBATION
Where [3] appears, read: Test System: AMES SALMONELLA TYPHIMURIUM, Strain/Indicator: TA1535, Metabolic Activation: NONE, Method: PREINCUBATION

Active and inactive are the calls of the source. No rule for the calls is given here.

From PubChem BioAssay AID1259407 (Chemical Carcinogenesis Research Information System (CCRIS), 2018) come the findings set out here.

For the compound `C=CCSSCCC`, the mutagenic call reads like this: (Test System: AMES SALMONELLA TYPHIMURIUM, Strain/Indicator: TA97, Metabolic Activation: HAMSTER, LIVER, S-9, AROCLOR 1254 (10 OR 30%), Method: PREINCUBATION) “inactive; negative”; (Test System: AMES SALMONELLA TYPHIMURIUM, Strain/Indicator: TA97, Metabolic Activation: NONE, Method: PREINCUBATION) “inactive; negative”; (Test System: AMES SALMONELLA TYPHIMURIUM, Strain/Indicator: TA97, Metabolic Activation: RAT, LIVER, S-9, AROCLOR 1254 (10 OR 30%), Method: PREINCUBATION) “inactive; negative”; (Test System: AMES SALMONELLA TYPHIMURIUM, Strain/Indicator: TA98, Metabolic Activation: HAMSTER, LIVER, S-9, AROCLOR 1254 (10 OR 30%), Method: PREINCUBATION) “inactive; negative”; under setting [1], “inactive; negative”; (Test System: AMES SALMONELLA TYPHIMURIUM, Strain/Indicator: TA98, Metabolic Activation: RAT, LIVER, S-9, AROCLOR 1254 (10 OR 30%), Method: PREINCUBATION) “inactive; negative”. In addition, the mutagenic call by setting is: (Test System: AMES SALMONELLA TYPHIMURIUM, Strain/Indicator: TA100, Metabolic Activation: HAMSTER, LIVER, S-9, AROCLOR 1254 (10 OR 30%), Method: PREINCUBATION) “inactive; negative”; under setting [2], “inactive; negative”; (Test System: AMES SALMONELLA TYPHIMURIUM, Strain/Indicator: TA100, Metabolic Activation: RAT, LIVER, S-9, AROCLOR 1254 (10 OR 30%), Method: PREINCUBATION) “inactive; negative”; (Test System: AMES SALMONELLA TYPHIMURIUM, Strain/Indicator: TA1535, Metabolic Activation: HAMSTER, LIVER, S-9, AROCLOR 1254 (10 OR 30%), Method: PREINCUBATION) “inactive; negative”; under setting [3], “inactive; negative”; (Test System: AMES SALMONELLA TYPHIMURIUM, Strain/Indicator: TA1535, Metabolic Activation: RAT, LIVER, S-9, AROCLOR 1254 (10 OR 30%), Method: PREINCUBATION) “inactive; negative”.

In the case of `Cc1c2c(c(C)c3c1ccc1ccccc13)[C@@H]1OC1[C@@H](O)[C@@H]2O` (stereo partly specified), the mutagenic call (Test System: CHINESE HAMSTER V-79, Strain/Indicator: V-79/OUABAIN, Metabolic Activation: CELL-MEDIATED, Method: STANDARD PLATE) was “active; positive”.

`COCCN(CCOC)c1cc(NC(C)=O)c(-n2nc3c(Br)cc(N)c(Cl)c3n2)cc1OC`: the mutagenic call (Test System: AMES SALMONELLA TYPHIMURIUM, Strain/Indicator: TA98, Metabolic Activation: RAT LIVER S-9, AROCLOR 1254, Method: STANDARD PLATE) is “active; positive”; the mutagenic call (Test System: AMES SALMONELLA TYPHIMURIUM, Strain/Indicator: TA100, Metabolic Activation: RAT LIVER S-9, AROCLOR 1254, Method: STANDARD PLATE) is “active; positive”; the mutagenic call (Test System: AMES SALMONELLA TYPHIMURIUM, Strain/Indicator: TA104, Metabolic Activation: RAT LIVER S-9, AROCLOR 1254, Method: STANDARD PLATE) is “active; positive”; the mutagenic call (Test System: AMES SALMONELLA TYPHIMURIUM, Strain/Indicator: YG1024, Metabolic Activation: RAT LIVER S-9, PHENOBARBITAL, 5,6-BENZOFLAVONE (10%), Method: PREINCUBATION) is “active; positive”.

On to `CCC=O`, for which the mutagenic call was “inactive; negative” under setting [1]; “inactive; negative” (Test System: AMES SALMONELLA TYPHIMURIUM, Strain/Indicator: TA98, Metabolic Activation: RAT, LIVER, S-9, AROCLOR 1254, Method: PREINCUBATION); “inactive; negative” under setting [2]; “inactive; negative” (Test System: AMES SALMONELLA TYPHIMURIUM, Strain/Indicator: TA100, Metabolic Activation: RAT LIVER S-9, AROCLOR 1254, Method: PREINCUBATION); “inactive; negative” (Test System: AMES SALMONELLA TYPHIMURIUM, Strain/Indicator: TA100, Metabolic Activation: RAT, LIVER, S-9, AROCLOR 1254, Method: PREINCUBATION); “inactive; negative” (Test System: AMES SALMONELLA TYPHIMURIUM, Strain/Indicator: TA102, Metabolic Activation: NONE, Method: PREINCUBATION). For the same compound, the mutagenic call (Test System: AMES SALMONELLA TYPHIMURIUM, Strain/Indicator: TA102, Metabolic Activation: RAT LIVER S-9, AROCLOR 1254, Method: PREINCUBATION) was “inactive; negative”; the mutagenic call (Test System: AMES SALMONELLA TYPHIMURIUM, Strain/Indicator: TA102, Metabolic Activation: RAT, LIVER, S-9, AROCLOR 1254, Method: PREINCUBATION) was “inactive; negative”; the mutagenic call (Test System: AMES SALMONELLA TYPHIMURIUM, Strain/Indicator: TA104, Metabolic Activation: NONE, Method: PREINCUBATION) is “inactive; negative”; the mutagenic call (Test System: AMES SALMONELLA TYPHIMURIUM, Strain/Indicator: TA104, Metabolic Activation: RAT LIVER S-9, AROCLOR 1254, Method: PREINCUBATION) is “inactive; negative”; the mutagenic call (Test System: CHINESE HAMSTER V-79, Strain/Indicator: V-79/6-THIOGUANINE (HGPRT), Metabolic Activation: NONE, Method: REPLATING) was “active; positive”; the mutagenic call (Test System: CHINESE HAMSTER V-79, Strain/Indicator: V-79/6-THIOGUANINE, Metabolic Activation: NONE) was “inactive; negative”. Moreover, the mutagenic call was “active; positive” (Test System: CHINESE HAMSTER V-79, Strain/Indicator: V-79/OUABAIN (NA/K), Metabolic Activation: NONE, Method: REPLATING); “inactive; negative” (Test System: UDS HUMAN HEPATOCYTES, Strain/Indicator: THY INCORP, Metabolic Activation: NONE, Method: AUTORADIOGRAPHY); “active; positive” (Test System: UDS RAT HEPATOCYTES, Strain/Indicator: THY INCORP, Metabolic Activation: NONE, Method: AUTORADIOGRAPHY).

As to `O=[N+]([O-])c1ccc(/C=C/c2ccc([N+](=O)[O-])cc2S(=O)(=O)O)c(S(=O)(=O)O)c1`, the mutagenic call reads like this: under setting [1], “inactive; negative”; (Test System: AMES SALMONELLA TYPHIMURIUM, Strain/Indicator: TA98, Metabolic Activation: RAT LIVER S-9, PHENOBARBITAL AND BETA-NAPHTHOFLAVONE, Method: PREINCUBATION) “inactive; negative”; under setting [2], “inactive; negative”; (Test System: AMES SALMONELLA TYPHIMURIUM, Strain/Indicator: TA100, Metabolic Activation: RAT LIVER S-9, PHENOBARBITAL AND BETA-NAPHTHOFLAVONE, Method: PREINCUBATION) “inactive; negative”; under setting [3], “inactive; negative”; (Test System: AMES SALMONELLA TYPHIMURIUM, Strain/Indicator: TA1535, Metabolic Activation: RAT LIVER S-9, PHENOBARBITAL AND BETA-NAPHTHOFLAVONE, Method: PREINCUBATION) “inactive; negative”. Also, the mutagenic call reads like this: (Test System: AMES SALMONELLA TYPHIMURIUM, Strain/Indicator: TA1537, Metabolic Activation: NONE, Method: PREINCUBATION) “inactive; negative”; (Test System: AMES SALMONELLA TYPHIMURIUM, Strain/Indicator: TA1537, Metabolic Activation: RAT LIVER S-9, PHENOBARBITAL AND BETA-NAPHTHOFLAVONE, Method: PREINCUBATION) “inactive; negative”; (Test System: E.COLI, Strain/Indicator: WP2UVRA/PKM101, Metabolic Activation: NONE, Method: PREINCUBATION) “inactive; negative”; (Test System: E.COLI, Strain/Indicator: WP2UVRA/PKM101, Metabolic Activation: RAT LIVER S-9, PHENOBARBITAL AND BETA-NAPHTHOFLAVONE, Method: PREINCUBATION) “inactive; negative”.

With `Nc1ccn([C@@H]2CS[C@H](CO)O2)c(=O)n1`, the mutagenic call by setting is: (Test System: Human TK6 Lymphoblastoid Cells, Strain/Indicator: HPRT, Metabolic Activation: None, Method: Standard Plate) “active; positive”; (Test System: Human TK6 Lymphoblastoid Cells, Strain/Indicator: TK, Metabolic Activation: None, Method: Standard Plate) “active; positive”; (Test System: Mouse lymphoma, Strain/Indicator: L5178Y (tk+/tk-), Metabolic Activation: None, Method: Suspension/plate) “inactive; negative”; (Test System: Mouse lymphoma, Strain/Indicator: L5178Y (tk+/tk-), Metabolic Activation: Rat, Liver, S-9, Aroclor 1254, Method: Suspension/plate) “inactive; negative”.
